“Also recorded” adds a separate entry of the source.
Experiments:
[1] = Cell viability (MTT assay) in LPS-treated RAW 264.7 macrophages; assay type: cell-based; conditions: mouse, RAW 264.7 macrophages treated with LPS, compound 100 μM and LPS 1 μg/mL, pretreated 1 h, incubated 24 h, read-out: Cell Viabilities (%)
Protocol: [table] Cell viability and nitrite levels were measured using MTT and Griess reaction assays, respectively.

[2] = tested on: LPS-stimulated PGE2 production in RAW 264.7 macrophages; assay: LPS-induced PGE2 production in RAW 264.7 macrophages (EIA kit); assay type: cell-based; conditions: for IC50 / inhibition at 100 µM: Mus musculus, RAW264.7, RAW 264.7; for IC50: LPS 1 μg/mL, 24 h; for inhibition at 100 µM: compound 100 μM and LPS 1 μg/mL, pretreated 1 h, incubated 24 h, read-out: Inhibition Rate (%) PGE2
Protocol: (§1) All the isolates 1–9 obtained from the leaves of A. koraiensis were evaluated for their inhibitory effects of LPS-stimulated NO and PGE2 production in RAW 264.7 macrophages at non-toxic concentrations (Table 3).
(§2) Figure 5 Inhibitory effects of compound 7 on LPS-stimulated NO (A) and PGE2 productions (B) in RAW 264.7 macrophages. Cells were pretreated with different concentrations (25, 50, or 100 μM) of compound 7 for 1 h, then with LPS (1 μg/mL), and then were incubated for 24 h. l-N^6-(1-Iminoethyl)lysine (l-NIL, 10 μM) and N-[2-(cyclohexyloxy)-4-nitrophenyl]-methanesulfonamide (NS-398, 10 μM) were used as positive NO and PGE2 production inhibitors, respectively.
PGE2 levels in cell culture mediums were determined using EIA kits (R&D Systems, MN) as reported in the previous paper.

[3] = tested on: LPS-stimulated NO production in RAW 264.7 macrophages; assay: LPS-induced NO production in RAW 264.7 macrophages (Griess reaction); assay type: cell-based; conditions: for IC50 / inhibition at 100 µM: Mus musculus, RAW264.7, RAW 264.7; for IC50: LPS 1 μg/mL, 24 h; for inhibition at 100 µM: compound 100 μM and LPS 1 μg/mL, pretreated 1 h, incubated 24 h, read-out: Inhibition Rate (%) NO
Protocol: as §1, §2
Cell viability and nitrite levels were measured using MTT and Griess reaction assays, respectively.

[4] = LPS-stimulated RAW 264.7 cells, non-toxic concentrations

| Structure (SMILES) | viability at 24 h, 100 μM [1] [%] | melting point [°C] | IC50 [2] [µM] | inhibition at 100 µM [2] [%] | IC50 [3] [µM] | inhibition at 100 µM [3] [%] | Inhibitory effect on PGE2 production (in words) [2, 4] | Inhibitory effect on NO production (in words) [3, 4] |
| --- | --- | --- | --- | --- | --- | --- | --- | --- |
| CC1=CCC(OC2OC(CO)C(O)C(O)C2O)C2(C)C(O)CC(C(C)C)C(OC3OC(CO)C(O)C(O)C3O)C12 [Compound 1, (1R,5S,6R,7S,9S,10S)-1,6,9-trihydroxy-eudesm-3-ene-1,6-di-O-β-D-glucopyranoside] | 102 | 167.2 | > 100 | 0 | > 100 | 1.79 | – | – |
| CC1=CC[C@@H](O)[C@@]2(C)[C@H]1[C@H](O[C@@H]1O[C@H](CO)[C@@H](O)[C@H](O)[C@H]1O)[C@H](C(C)C)C[C@@H]2O [Compound 2, (1R,5S,6R,7S,9S,10R)-1,6,9-trihydroxy-eudesm-3-ene-6-O-β-D-glucopyranoside] | 105 | – | > 100 | 0 | > 100 | 3.2 | – | – |
| CC1=CCC(OC2OC(CO)C(O)C(O)C2O)C2(C)C(O)CC(C(C)(C)O)C(OC3OC(CO)C(O)C(O)C3O)C12 [Compound 3, (1R,5S,6S,7R,9S,10S)-1,6,9,11-tetrahydroxy-eudesm-3-ene-1,6-di-O-β-D-glucopyranoside] | 94 | 230 | > 100 | 10.5 | > 100 | 4.66 | – | – |
| CC1=CC[C@@H](O)[C@@]2(C)[C@H]1[C@H](O[C@@H]1O[C@H](CO)[C@@H](O)[C@H](O)[C@H]1O)[C@H](C(C)(C)O)C[C@@H]2O [Compound 4, (1R,5S,6S,7R,9S,10R)-1,6,9,11-tetrahydroxy-eudesm-3-ene-6-O-β-D-glucopyranoside] | 102 | – | > 100 | 6.15 | > 100 | 1.31 | – | – |
| CC1=CC[C@@H](O)[C@]2(C)[C@@H](OC(=O)/C=C/c3ccc(O)cc3)C[C@@H](C(C)C)[C@@H](O[C@@H]3O[C@H](CO)[C@@H](O)[C@H](O)[C@H]3O)[C@@H]12 [Compound 5, (1R,5S,6R,7S,9S,10R)-9-O-(E-p-coumaroyl)-1,6,9-trihydroxy-eudesm-3-ene-6-O-β-D-glucopyranoside] | 104 | – | > 100 | 0 | > 100 | 8.39 | – | – |
| CC1=CC[C@@H](O)[C@]2(C)[C@@H](OC(=O)/C=C\c3ccc(O)cc3)C[C@@H](C(C)C)[C@@H](O[C@@H]3O[C@H](CO)[C@@H](O)[C@H](O)[C@H]3O)[C@@H]12 [Compound 6, (1R,5S,6R,7S,9S,10R)-9-O-(Z-p-coumaroyl)-1,6,9-trihydroxy-eudesm-3-ene-6-O-β-D-glucopyranoside] | 108 | – | > 100 | 2.16 | > 100 | 7.01 | – | – |
| COc1cc(/C=C/C(=O)O[C@H]2C[C@@H](C(C)C)[C@@H](O[C@@H]3O[C@H](CO)[C@@H](O)[C@H](O)[C@H]3O)[C@H]3C(C)=CC[C@@H](O)[C@]23C)ccc1O [Compound 7, (1R,5S,6R,7S,9S,10R)-9-O-(E-feruloyl)-1,6,9-trihydroxy-eudesm-3-ene-6-O-β-D-glucopyranoside] | 89.3 | – | > 100 | 41.3 | 95.7 | 53.1 | weak inhibitory effects; also recorded: weak inhibitory activities | weak inhibitory effects; also recorded: weak inhibitory activities |
| O=C(/C=C/c1ccc(O)c(O)c1)O[C@@H]1C[C@](O)(C(=O)O)C[C@@H](OC(=O)/C=C/c2ccc(O)c(O)c2)[C@H]1O [Compound 8, 3,5-dicaffeoylquinic acid] | 93.4 | – | > 100 | 1.27 | > 100 | 6.25 | – | – |
| O=C(/C=C/c1ccc(O)c(O)c1)O[C@@H]1[C@H](O)C[C@@](O)(C(=O)O)C[C@H]1OC(=O)/C=C/c1ccc(O)c(O)c1 [Compound 9, 4,5-dicaffeoylquinic acid] | 100 | – | > 100 | 20.4 | > 100 | 4.64 | – | – |

Source: publication PMC7766762, “New Eudesmane-Type Sesquiterpene Glycosides from the Leaves of Aster koraiensis” (Plants, 2020)
